Legend:
Format in all cases: physicochemical
[1] = Photobleaching under constant illumination from a halogen tungsten lamp filtered through glass; conditions: MeOH; for kph(rel) (relative rate of photobleaching): with respect to standard I-TBA in MeOH
Source text: The photostability of dyes can be important for applications in living cells. The mechanism of photobleaching for merocyanines of varying structure has been examined See Toutchkine et al., J. Am. Chem. Soc. 125:4132-4145 (2003). The photostability of the presently disclosed dyes was characterized by exposing them to constant illumination from a halogen tungsten lamp filtered through glass. This broad spectrum light source provided essentially equal intensity throughout the spectral range where the dyes absorb and where they would be irradiated in vivo (about 600 nm to about 650 nm).

[2] = Relative rate of reaction with chemically generated singlet oxygen in DMSO; conditions: 2.5 mM, 1O2 from 1,4-dimethylnaphtalene-1,4-endoperoxide
Procedure: The bleaching rates for the dyes differed by two orders of magnitude. The relative rate constants kr (rel) for product formation during reaction with singlet oxygen were measured by comparing the percent conversions for dyes dissolved in DMSO containing a fixed amount of ^1O2 (2.5 mM solutions; ^1O2 generated by decomposition of 1,4-dimethylnaphtalene-1,4-endoperoxide). The rates were generally higher for dyes with a polar ground state (1a, 2a, 2b, 2d) than for the dyes with their ground state at the “cyanine limit” (3, 4). […] Olefins without allylic hydrogens react with singlet oxygen to form dioxetanes. Dioxetanes are unstable and decompose, to form two carbonyl compounds.

[3] = Absorption and fluorescence spectra, extinction coefficient, fluorescence quantum yield
Procedure: Absorption spectra were recorded on a Hewlett-Packard 8453 diode array UV-Vis spectrophotometer (Agilent Technologies, Inc., Santa Clara, Calif.), and fluorescence measurements were taken on a SPEX® Fluorolog 2 spectrofluorometer (HORIBA Jobin Yvon, Inc., Edison, N.J.). Melting points are not corrected. NMR spectra were obtained on a Varian Mercury 300 MHz (Varian, Inc., Palo Alto, Calif.) or on a Bruker 300 MHz DRX 300 spectrometer (Bruker Biospin Corp., Billerica, Mass.). Mass spectra were obtained on a Hewlett-Packard 1100 high-performance liquid chromatograph equipped with an 1100 mass selective detector (MS-ESI) (Agilent Technologies, Inc.).
With decreasing solvent polarity, the absorption maximum of dyes 1a-b, 2a-d shifted to longer wavelengths, and the intensity of the transition increased (Table 10, FIG. 11).
The SCRF/VSCRF predicted emission energies and the solute dipole moments before and after the vertical emission process are given in Table 16. The dipole moments of AI-BA(4) and AI-SO(4) are further decreased on the S1 surface after geometry relaxation (in MeOH solution), and then increased during the S1→S0 transition. This observation is consistent with the blue shifts of the emission bands of AI-BA(4) and AI-SO(4) with increasing solvent polarity from C6H6 to MeOH. By contrast, the dipole moment of I-SO further decreases after S1 state geometry relaxation, and then decreases during the vertical emission process. This observation also is in agreement with the red shift of the I-SO emission band with increasing solvent polarity from C6H6 to MeOH. Similarly to the absorption case, a negligible red shift (ΔEem=0.017 eV) was predicted for the emission band of I-TBA with increasing solvent polarity. A small red shift from C6H6 to DMF (with ΔEem=0.020 eV, or Δλmax=6 nm) is observed. The nearly equal emission energy observed in C6H6 and MeOH can again result in the explicit interactions between the solute and solvent molecules.

CCN1C(=O)\C(=C/C=C/C=C2/N(C)c3ccccc3C2(C)C)C(O)N(CC)C1=S (stereo not shown) [I-TBA, reference compound]
kph * 10^6 (absolute rate of photobleaching) [1]: 0.34 s^−1
kph(rel) (relative rate of photobleaching) [1]: 1.00
kr(rel) (relative rate constants for product formation during reaction with singlet oxygen produced chemically) [2]: 1.00
Absorption energy Eabs Exp ([3]; C6H6): 2.123 eV
Emission energy Eem Exp ([3]; C6H6): 2.050 eV
Absorption energy Eabs Exp ([3]; MeOH): 2.127 eV
Emission energy Eem Exp ([3]; MeOH): 2.056 eV
Observed absorption (ε) ([3]; Table 10, BuOH): (190000)
Observed absorption λmax ([3]; Table 10, BuOH): 589 nm
Observed absorption (ε) ([3]; Table 10, C6H6): (127000)
Observed absorption λmax ([3]; Table 10, C6H6): 584 nm
Observed absorption (ε) ([3]; Table 10, DMF): (183000)
Observed absorption λmax ([3]; Table 10, DMF): 589 nm
Observed absorption (ε) ([3]; Table 10, MeOH): (173000)
Observed absorption λmax ([3]; Table 10, MeOH): 583 nm
Observed absorption (ε) ([3]; Table 10, OcOH): (180000)
Observed absorption λmax ([3]; Table 10, OcOH): 590 nm
Absorption Exp wavelength ([3]; Table 12, C6H6): 585 nm
Absorption Exp wavelength ([3]; Table 12, MeOH): 583 nm
Observed emission (Φ) ([3]; Table 15, BuOH): 0.61
Observed emission λmax ([3]; Table 15, BuOH): 609 nm
Observed emission (Φ) ([3]; Table 15, C6H6): 0.20
Observed emission λmax ([3]; Table 15, C6H6): 605 nm
Observed emission (Φ) ([3]; Table 15, DMF): 0.94
Observed emission λmax ([3]; Table 15, DMF): 611 nm
Observed emission (Φ) ([3]; Table 15, MeOH): 0.26
Observed emission λmax ([3]; Table 15, MeOH): 603 nm
Observed emission (Φ) ([3]; Table 15, OcOH): 0.99
Observed emission λmax ([3]; Table 15, OcOH): 609 nm
Observed red shift of emission ΔEem ([3]; from C6H6 to DMF): 0.020 eV
Observed red shift of emission Δλmax ([3]; from C6H6 to DMF): 6 nm
Observed red shift of absorption Δλmax ([3]; from C6H6 to OcOH): 6 nm
Observed blue shift of absorption Δλmax ([3]; from OcOH to MeOH): 7 nm

C[n+]1ccc(/C=C/C=C/C2=C([O-])c3ccccc3S2(=O)=O)cc1 [P-SO(4)]
kph * 10^6 (absolute rate of photobleaching) [1]: 28 s^−1
kph(rel) (relative rate of photobleaching) [1]: 82
kr(rel) (relative rate constants for product formation during reaction with singlet oxygen produced chemically) [2]: 60.3
Observed absorption (ε) ([3]; Table 10, BuOH): (64000)
Observed absorption λmax ([3]; Table 10, BuOH): 593 nm
Observed absorption (ε) ([3]; Table 10, C6H6): (178000)
Observed absorption λmax ([3]; Table 10, C6H6): 644 nm
Observed absorption (ε) ([3]; Table 10, CH2Cl2): (187000)
Observed absorption λmax ([3]; Table 10, CH2Cl2): 629 nm
Observed absorption (ε) ([3]; Table 10, CH3CN): (93000)
Observed absorption λmax ([3]; Table 10, CH3CN): 596 nm
Observed absorption (ε) ([3]; Table 10, DMF): (99000)
Observed absorption λmax ([3]; Table 10, DMF): 604 nm
Observed absorption (ε) ([3]; Table 10, DMSO): (77000)
Observed absorption λmax ([3]; Table 10, DMSO): 599 nm
Observed absorption (ε) ([3]; Table 10, EtOH): (61000)
Observed absorption λmax ([3]; Table 10, EtOH): 557 nm
Observed absorption (ε) ([3]; Table 10, MeOH): (54000)
Observed absorption λmax ([3]; Table 10, MeOH): 580 nm
Observed absorption (ε) ([3]; Table 10, OcOH): (80000)
Observed absorption λmax ([3]; Table 10, OcOH): 612 nm
Observed absorption (ε) ([3]; Table 10, i-PrOH): (68000)
Observed absorption λmax ([3]; Table 10, i-PrOH): 597 nm
Observed emission (Φ) ([3]; Table 15, BuOH): 0.048
Observed emission λmax ([3]; Table 15, BuOH): 640 nm
Observed emission (Φ) ([3]; Table 15, C6H6): 0.002
Observed emission λmax ([3]; Table 15, C6H6): 656 nm
Observed emission (Φ) ([3]; Table 15, CH2Cl2): 0.082
Observed emission λmax ([3]; Table 15, CH2Cl2): 650 nm
Observed emission (Φ) ([3]; Table 15, CH3CN): 0.067
Observed emission λmax ([3]; Table 15, CH3CN): 632 nm
Observed emission (Φ) ([3]; Table 15, DMF): 0.10
Observed emission λmax ([3]; Table 15, DMF): 635 nm
Observed emission (Φ) ([3]; Table 15, DMSO): 0.067
Observed emission λmax ([3]; Table 15, DMSO): 636 nm
Observed emission (Φ) ([3]; Table 15, EtOH): 0.029
Observed emission λmax ([3]; Table 15, EtOH): 634 nm
Observed emission (Φ) ([3]; Table 15, MeOH): 0.018
Observed emission λmax ([3]; Table 15, MeOH): 630 nm
Observed emission (Φ) ([3]; Table 15, OcOH): 0.082
Observed emission λmax ([3]; Table 15, OcOH): 644 nm
Observed emission (Φ) ([3]; Table 15, i-PrOH): 0.049
Observed emission λmax ([3]; Table 15, i-PrOH): 636 nm

Reference: patent publication US8835632B2, “Methods to increase the photostability of dyes” (The University of North Carolina at Chapel Hill, priority 2007, dated 2014)
